Results: ChEMBL document CHEMBL3991601, “The target landscape of clinical kinase drugs” (Science, 2017)
pKd: −log10 of the molar value. The source made the active and inactive calls. For most assays here, no stated cut-off is given here; in the data, actives have a measured Kd and inactives only a lower limit.

Tests used:
[1] = target: BMP-2-inducible protein kinase (Homo sapiens, UniProt Q9NSY1)
[2] = target: T1, ATP-dependent RNA helicase DDX1 (Homo sapiens, UniProt Q92499)
T1 sequence (Q92499 whole entry): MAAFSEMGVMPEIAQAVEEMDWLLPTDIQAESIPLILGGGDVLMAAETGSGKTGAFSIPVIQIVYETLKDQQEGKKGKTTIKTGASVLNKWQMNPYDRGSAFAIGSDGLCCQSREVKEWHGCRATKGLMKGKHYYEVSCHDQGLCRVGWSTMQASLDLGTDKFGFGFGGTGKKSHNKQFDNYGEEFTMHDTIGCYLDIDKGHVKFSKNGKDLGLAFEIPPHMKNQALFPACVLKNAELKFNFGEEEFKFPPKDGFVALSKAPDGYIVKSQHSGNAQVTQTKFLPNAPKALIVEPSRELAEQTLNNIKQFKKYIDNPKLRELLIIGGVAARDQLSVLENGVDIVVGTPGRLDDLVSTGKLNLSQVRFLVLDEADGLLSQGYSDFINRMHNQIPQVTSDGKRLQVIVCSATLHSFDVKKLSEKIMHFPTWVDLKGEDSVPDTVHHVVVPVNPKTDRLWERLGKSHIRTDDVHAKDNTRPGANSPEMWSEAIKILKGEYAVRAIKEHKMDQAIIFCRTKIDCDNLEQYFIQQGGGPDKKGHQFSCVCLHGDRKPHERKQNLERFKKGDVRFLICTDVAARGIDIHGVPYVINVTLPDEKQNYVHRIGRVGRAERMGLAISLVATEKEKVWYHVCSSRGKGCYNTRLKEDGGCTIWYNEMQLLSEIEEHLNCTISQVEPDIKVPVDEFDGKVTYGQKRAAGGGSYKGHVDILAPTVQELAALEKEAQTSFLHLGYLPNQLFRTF

[3] = target: Epidermal growth factor receptor (Homo sapiens, UniProt P00533)
[4] = target: Ephrin type-A receptor 5 (Homo sapiens, UniProt P54756)
[5] = target: T2, Receptor-type tyrosine-protein kinase FLT3 (Homo sapiens, UniProt P36888)
T2 sequence (P36888 whole entry): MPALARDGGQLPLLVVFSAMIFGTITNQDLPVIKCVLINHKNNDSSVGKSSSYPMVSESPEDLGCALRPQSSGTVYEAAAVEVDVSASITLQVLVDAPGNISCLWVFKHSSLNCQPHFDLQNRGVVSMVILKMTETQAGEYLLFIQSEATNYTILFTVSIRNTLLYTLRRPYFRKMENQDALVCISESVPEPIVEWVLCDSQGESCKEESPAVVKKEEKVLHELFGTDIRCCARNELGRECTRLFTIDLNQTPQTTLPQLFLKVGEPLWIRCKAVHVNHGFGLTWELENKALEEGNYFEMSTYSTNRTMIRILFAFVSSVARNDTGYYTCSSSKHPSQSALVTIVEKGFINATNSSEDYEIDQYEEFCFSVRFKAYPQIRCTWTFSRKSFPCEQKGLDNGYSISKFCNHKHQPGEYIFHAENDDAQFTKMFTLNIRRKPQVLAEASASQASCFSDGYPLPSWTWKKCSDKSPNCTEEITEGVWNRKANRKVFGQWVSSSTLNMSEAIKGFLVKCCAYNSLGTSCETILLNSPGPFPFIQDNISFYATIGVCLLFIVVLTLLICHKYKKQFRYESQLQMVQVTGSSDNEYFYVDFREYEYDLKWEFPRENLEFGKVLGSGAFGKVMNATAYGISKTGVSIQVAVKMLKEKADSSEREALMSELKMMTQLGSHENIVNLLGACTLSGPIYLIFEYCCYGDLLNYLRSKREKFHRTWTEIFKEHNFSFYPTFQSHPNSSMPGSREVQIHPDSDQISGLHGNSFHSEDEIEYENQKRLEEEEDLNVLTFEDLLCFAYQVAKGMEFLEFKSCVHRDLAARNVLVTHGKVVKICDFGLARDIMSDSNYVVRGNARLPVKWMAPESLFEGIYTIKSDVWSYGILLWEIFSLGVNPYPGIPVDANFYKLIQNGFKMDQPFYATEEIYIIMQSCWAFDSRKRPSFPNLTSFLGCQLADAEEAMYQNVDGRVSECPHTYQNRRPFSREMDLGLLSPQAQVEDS

[6] = target: Interleukin-1 receptor-associated kinase 1 (Homo sapiens, UniProt P51617)
[7] = target: Tyrosine-protein kinase JAK1 (Homo sapiens, UniProt P23458)
[8] = target: Dual specificity mitogen-activated protein kinase kinase 2 (Homo sapiens, UniProt P36507)
[9] = target: T3, Mitogen-activated protein kinase kinase kinase 3 (Homo sapiens, UniProt Q99759)
T3 sequence (Q99759 whole entry): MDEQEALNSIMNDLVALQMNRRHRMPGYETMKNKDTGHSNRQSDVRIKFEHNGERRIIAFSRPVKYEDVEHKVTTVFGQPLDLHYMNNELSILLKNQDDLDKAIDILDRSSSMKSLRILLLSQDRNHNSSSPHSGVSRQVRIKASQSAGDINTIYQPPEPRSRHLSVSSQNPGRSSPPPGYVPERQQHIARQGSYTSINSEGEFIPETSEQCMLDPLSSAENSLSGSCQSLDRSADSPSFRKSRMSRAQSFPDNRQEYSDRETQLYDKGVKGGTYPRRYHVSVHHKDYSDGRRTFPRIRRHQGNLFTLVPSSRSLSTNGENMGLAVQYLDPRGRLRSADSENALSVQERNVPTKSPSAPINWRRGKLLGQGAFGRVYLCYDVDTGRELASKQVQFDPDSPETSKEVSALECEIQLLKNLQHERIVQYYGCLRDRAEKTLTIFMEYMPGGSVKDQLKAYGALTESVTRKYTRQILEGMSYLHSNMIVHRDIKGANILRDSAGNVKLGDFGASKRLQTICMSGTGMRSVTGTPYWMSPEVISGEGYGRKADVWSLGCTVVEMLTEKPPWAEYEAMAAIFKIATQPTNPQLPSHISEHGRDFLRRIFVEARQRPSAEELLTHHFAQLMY

[10] = target: Serine/threonine-protein kinase PAK 2 (Homo sapiens, UniProt Q13177)
[11] = target: Dual specificity testis-specific protein kinase 1 (Homo sapiens, UniProt Q15569)
Sequence of Dual specificity testis-specific protein kinase 1 (Q15569 whole entry): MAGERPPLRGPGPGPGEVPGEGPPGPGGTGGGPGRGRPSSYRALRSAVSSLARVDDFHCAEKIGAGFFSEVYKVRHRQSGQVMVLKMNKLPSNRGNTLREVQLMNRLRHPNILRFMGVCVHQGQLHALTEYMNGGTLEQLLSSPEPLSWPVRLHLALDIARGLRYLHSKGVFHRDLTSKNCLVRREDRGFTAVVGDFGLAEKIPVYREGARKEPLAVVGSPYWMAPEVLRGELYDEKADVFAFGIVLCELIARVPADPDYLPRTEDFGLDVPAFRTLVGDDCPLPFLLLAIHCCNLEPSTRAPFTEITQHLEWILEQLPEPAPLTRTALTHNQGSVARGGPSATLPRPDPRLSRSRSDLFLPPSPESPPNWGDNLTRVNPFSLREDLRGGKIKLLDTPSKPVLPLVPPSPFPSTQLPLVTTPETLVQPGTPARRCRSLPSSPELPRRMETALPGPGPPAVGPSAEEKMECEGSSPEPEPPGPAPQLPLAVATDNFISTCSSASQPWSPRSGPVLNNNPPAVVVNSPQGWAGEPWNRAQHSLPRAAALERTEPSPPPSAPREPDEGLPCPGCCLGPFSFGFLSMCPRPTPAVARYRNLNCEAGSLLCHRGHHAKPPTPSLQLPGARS

Sequence of Dual specificity mitogen-activated protein kinase kinase 2 (P36507 whole entry): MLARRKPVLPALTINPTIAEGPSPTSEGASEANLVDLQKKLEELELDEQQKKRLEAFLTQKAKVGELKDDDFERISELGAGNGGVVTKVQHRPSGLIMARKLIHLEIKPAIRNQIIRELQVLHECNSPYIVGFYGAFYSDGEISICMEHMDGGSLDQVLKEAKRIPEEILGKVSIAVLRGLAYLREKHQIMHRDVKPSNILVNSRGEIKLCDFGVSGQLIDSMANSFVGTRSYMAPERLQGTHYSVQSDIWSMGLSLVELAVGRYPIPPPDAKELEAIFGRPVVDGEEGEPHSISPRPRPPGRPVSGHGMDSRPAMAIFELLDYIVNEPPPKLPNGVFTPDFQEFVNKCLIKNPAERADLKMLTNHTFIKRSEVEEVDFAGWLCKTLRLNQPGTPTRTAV
Sequence of Interleukin-1 receptor-associated kinase 1 (P51617 whole entry): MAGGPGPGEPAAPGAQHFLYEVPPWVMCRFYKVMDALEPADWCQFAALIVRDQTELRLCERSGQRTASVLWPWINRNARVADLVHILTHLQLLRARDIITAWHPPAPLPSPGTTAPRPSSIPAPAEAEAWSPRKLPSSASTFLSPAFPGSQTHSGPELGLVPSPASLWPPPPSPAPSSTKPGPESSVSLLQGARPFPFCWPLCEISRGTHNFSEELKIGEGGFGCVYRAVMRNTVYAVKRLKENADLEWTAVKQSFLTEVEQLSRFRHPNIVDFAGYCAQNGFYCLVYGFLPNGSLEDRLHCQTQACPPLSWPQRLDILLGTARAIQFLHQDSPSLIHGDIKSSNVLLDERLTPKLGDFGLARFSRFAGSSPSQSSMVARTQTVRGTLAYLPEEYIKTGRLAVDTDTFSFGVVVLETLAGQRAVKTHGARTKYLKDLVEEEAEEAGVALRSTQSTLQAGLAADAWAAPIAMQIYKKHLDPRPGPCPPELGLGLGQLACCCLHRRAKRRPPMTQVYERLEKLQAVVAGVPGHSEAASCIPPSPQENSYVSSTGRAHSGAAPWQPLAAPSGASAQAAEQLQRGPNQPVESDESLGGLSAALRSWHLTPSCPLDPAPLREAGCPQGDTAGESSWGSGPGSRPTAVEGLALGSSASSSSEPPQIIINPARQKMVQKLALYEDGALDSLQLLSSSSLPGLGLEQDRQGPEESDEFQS
Sequence of Serine/threonine-protein kinase PAK 2 (Q13177 whole entry): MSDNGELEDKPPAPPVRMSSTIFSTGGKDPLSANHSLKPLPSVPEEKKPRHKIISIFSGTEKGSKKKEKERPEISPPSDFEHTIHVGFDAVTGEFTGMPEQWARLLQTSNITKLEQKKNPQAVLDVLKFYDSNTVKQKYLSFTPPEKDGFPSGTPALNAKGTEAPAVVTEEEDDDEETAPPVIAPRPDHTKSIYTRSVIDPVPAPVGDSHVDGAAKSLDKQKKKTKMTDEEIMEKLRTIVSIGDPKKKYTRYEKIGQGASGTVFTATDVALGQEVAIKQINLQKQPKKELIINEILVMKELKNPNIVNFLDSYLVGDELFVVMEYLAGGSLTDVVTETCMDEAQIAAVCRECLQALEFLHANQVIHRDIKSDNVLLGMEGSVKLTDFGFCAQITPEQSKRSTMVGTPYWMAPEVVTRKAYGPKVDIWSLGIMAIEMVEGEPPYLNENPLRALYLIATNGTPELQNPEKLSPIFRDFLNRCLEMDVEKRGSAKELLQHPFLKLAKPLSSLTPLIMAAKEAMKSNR
Sequence of Tyrosine-protein kinase JAK1 (P23458 whole entry): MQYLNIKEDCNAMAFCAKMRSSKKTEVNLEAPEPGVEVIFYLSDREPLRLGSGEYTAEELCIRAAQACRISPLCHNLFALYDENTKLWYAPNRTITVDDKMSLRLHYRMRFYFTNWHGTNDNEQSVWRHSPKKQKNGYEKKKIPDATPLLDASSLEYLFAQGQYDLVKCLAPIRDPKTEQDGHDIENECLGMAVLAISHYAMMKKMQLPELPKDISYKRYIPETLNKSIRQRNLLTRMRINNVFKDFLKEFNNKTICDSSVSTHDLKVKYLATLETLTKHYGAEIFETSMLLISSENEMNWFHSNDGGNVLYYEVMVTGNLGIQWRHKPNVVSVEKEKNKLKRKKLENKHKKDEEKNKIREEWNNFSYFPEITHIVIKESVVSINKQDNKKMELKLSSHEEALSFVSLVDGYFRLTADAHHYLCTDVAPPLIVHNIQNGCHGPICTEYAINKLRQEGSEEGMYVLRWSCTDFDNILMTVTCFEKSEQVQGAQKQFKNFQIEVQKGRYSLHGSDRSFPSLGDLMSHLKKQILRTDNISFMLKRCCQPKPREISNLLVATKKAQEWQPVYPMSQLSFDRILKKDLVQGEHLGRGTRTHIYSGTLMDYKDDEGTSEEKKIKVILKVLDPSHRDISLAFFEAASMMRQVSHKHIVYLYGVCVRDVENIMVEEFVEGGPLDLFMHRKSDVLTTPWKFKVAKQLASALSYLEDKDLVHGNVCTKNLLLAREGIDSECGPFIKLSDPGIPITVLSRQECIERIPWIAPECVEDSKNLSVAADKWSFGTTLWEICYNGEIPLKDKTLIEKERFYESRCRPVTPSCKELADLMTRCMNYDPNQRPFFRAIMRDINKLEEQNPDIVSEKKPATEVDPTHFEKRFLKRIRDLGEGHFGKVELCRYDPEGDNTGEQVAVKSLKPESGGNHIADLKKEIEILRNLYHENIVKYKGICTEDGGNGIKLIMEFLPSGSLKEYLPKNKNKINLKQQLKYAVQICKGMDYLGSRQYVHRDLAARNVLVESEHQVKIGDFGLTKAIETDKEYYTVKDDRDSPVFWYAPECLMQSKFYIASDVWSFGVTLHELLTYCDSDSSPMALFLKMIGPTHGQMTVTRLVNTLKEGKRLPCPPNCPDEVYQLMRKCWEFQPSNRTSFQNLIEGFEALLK
Sequence of Epidermal growth factor receptor (P00533 whole entry): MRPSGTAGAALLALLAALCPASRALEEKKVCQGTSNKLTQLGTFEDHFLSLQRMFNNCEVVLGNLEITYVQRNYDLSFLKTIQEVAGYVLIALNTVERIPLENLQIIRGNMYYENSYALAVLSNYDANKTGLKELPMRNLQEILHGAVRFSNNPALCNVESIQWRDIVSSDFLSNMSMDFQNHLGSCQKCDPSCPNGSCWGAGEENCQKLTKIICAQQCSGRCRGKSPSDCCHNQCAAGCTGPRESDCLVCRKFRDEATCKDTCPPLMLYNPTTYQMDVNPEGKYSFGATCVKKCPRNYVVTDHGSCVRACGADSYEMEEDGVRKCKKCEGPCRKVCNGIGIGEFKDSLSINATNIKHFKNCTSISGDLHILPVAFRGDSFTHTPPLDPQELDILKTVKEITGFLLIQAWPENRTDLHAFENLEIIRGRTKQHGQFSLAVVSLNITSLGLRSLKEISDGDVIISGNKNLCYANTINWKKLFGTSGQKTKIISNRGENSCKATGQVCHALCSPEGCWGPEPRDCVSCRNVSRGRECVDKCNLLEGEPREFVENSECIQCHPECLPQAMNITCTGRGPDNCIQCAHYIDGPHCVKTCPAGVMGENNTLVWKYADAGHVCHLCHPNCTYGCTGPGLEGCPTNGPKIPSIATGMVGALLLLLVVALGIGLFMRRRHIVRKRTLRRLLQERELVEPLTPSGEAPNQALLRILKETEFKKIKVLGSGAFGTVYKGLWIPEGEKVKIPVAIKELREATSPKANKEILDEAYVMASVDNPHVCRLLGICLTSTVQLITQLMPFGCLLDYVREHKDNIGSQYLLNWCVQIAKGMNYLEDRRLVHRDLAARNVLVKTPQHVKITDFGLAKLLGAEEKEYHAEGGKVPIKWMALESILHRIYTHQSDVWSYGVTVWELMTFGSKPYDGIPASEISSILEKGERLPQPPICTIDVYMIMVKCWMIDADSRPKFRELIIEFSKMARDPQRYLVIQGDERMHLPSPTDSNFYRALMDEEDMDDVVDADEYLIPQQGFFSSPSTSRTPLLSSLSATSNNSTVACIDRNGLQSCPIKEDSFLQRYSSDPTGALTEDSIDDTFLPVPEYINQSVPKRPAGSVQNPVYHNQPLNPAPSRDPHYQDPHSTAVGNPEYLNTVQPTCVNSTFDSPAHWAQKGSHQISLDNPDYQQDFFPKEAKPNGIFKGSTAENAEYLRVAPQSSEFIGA

SMILES: Cn1cc(-c2cnc3ccc4ccc(CS(=O)(=O)NCc5ccccn5)cc4c(=O)c3c2)cn1 [MK-8033]
- Kd [1]: > 30 µM (inactive)
- Kd [2]: > 30 µM (inactive)
- Kd [3]: > 30 µM (inactive)
- Kd [4]: > 30 µM (inactive)
- Kd [5]: > 30 µM (inactive)
- Kd [6]: > 30 µM (inactive)
- Kd [7]: > 30 µM (inactive)
- Kd [8]: > 30 µM (inactive)
- Kd [9]: > 30 µM (inactive)
- Kd [10]: > 30 µM (inactive)
- Kd [11]: > 30 µM (inactive)

SMILES: CN(C[C@@H]1COCCO1)S(=O)(=O)Nc1ccc2ccc3ncc(-c4cnn(C)c4)cc3c(=O)c2c1 [MK-2461]
- Kd [1]: > 30 µM (inactive)
- Kd [2]: > 30 µM (inactive)
- Kd [3]: > 30 µM (inactive)
- Kd [4]: > 30 µM (inactive)
- Kd [5]: > 30 µM (inactive)
- Kd [6]: > 30 µM (inactive)
- Kd [7]: > 30 µM (inactive)
- Kd [8]: > 30 µM (inactive)
- Kd [9]: > 30 µM (inactive)
- Kd [10]: > 30 µM (inactive)
- Kd [11]: > 30 µM (inactive)

SMILES: CN1C/C=C/CCOc2cccc(c2)-c2ccnc(n2)Nc2cccc(c2)C1 [ZOTIRACICLIB]
- Kd [1]: > 30 µM (inactive)
- Kd [2]: > 30 µM (inactive)
- pKd [3]: 4.10
- Kd [4]: > 30 µM (inactive)
- pKd [5]: 6.38
- Kd [6]: > 30 µM (inactive)
- Kd [7]: 2.01 µM (active)
- Kd [8]: > 30 µM (inactive)
- Kd [9]: > 30 µM (inactive)
- Kd [10]: > 30 µM (inactive)
- Kd [11]: > 30 µM (inactive)

SMILES: Cc1nc2cc(-n3ncc(C(=O)c4cc5ccccc5[nH]4)c3N)ccc2[nH]1 [FGFR INHIBITOR DEBIO 1347]
- Kd [1]: > 30 µM (inactive)
- Kd [2]: > 30 µM (inactive)
- Kd [3]: > 30 µM (inactive)
- Kd [4]: > 30 µM (inactive)
- Kd [5]: > 30 µM (inactive)
- Kd [6]: > 30 µM (inactive)
- Kd [7]: > 30 µM (inactive)
- Kd [8]: > 30 µM (inactive)
- Kd [9]: > 30 µM (inactive)
- Kd [10]: > 30 µM (inactive)
- Kd [11]: > 30 µM (inactive)

SMILES: C[C@@H](N)c1ccc(C(=O)Nc2ccnc3[nH]ccc23)cc1 [Y-39983]
- Kd [1]: 0.179 µM (active)
- Kd [2]: > 30 µM (inactive)
- Kd [3]: > 30 µM (inactive)
- Kd [4]: > 30 µM (inactive)
- Kd [5]: > 30 µM (inactive)
- Kd [6]: > 30 µM (inactive)
- Kd [7]: > 30 µM (inactive)
- Kd [8]: > 30 µM (inactive)
- Kd [9]: > 30 µM (inactive)
- Kd [10]: > 30 µM (inactive)
- Kd [11]: > 30 µM (inactive)

SMILES: N#CC1(c2ccc(NC(=O)c3cccnc3NCc3ccncc3)cc2)CCCC1 [RIVOCERANIB]
- Kd [1]: > 30 µM (inactive)
- Kd [2]: > 30 µM (inactive)
- Kd [3]: > 30 µM (inactive)
- Kd [4]: > 30 µM (inactive)
- Kd [5]: > 30 µM (inactive)
- Kd [6]: > 30 µM (inactive)
- Kd [7]: > 30 µM (inactive)
- Kd [8]: > 30 µM (inactive)
- Kd [9]: > 30 µM (inactive)
- Kd [10]: > 30 µM (inactive)
- Kd [11]: > 30 µM (inactive)

SMILES: CC(C)c1cc(CNc2nc(Nc3cc(C4CC4)[nH]n3)cc(N3CCN(C)CC3)n2)on1 [XL-228]
- Kd [1]: 0.014 µM (active)
- Kd [2]: > 30 µM (inactive)
- Kd [3]: > 30 µM (inactive)
- Kd [4]: 0.081 µM (active)
- Kd [5]: 0.005 µM (active)
- Kd [6]: > 30 µM (inactive)
- Kd [7]: > 30 µM (inactive)
- pKd [8]: 5.38
- Kd [9]: > 30 µM (inactive)
- Kd [10]: > 30 µM (inactive)
- Kd [11]: > 30 µM (inactive)

SMILES: CO[C@H]1C[C@@H]2CC[C@@H](C)[C@@](O)(O2)C(=O)C(=O)N2CCCC[C@H]2C(=O)O[C@H]([C@H](C)C[C@@H]2CC[C@@H](O)[C@H](OC)C2)CC(=O)[C@H](C)/C=C(\C)[C@@H](O)[C@@H](OC)C(=O)[C@H](C)C[C@H](C)/C=C/C=C/C=C/1C [SIROLIMUS]
- Kd [1]: > 30 µM (inactive)
- Kd [2]: > 30 µM (inactive)
- Kd [3]: > 30 µM (inactive)
- Kd [4]: > 30 µM (inactive)
- Kd [5]: > 30 µM (inactive)
- Kd [6]: > 30 µM (inactive)
- Kd [7]: > 30 µM (inactive)
- Kd [8]: > 30 µM (inactive)
- Kd [9]: > 30 µM (inactive)
- Kd [10]: > 30 µM (inactive)
- Kd [11]: > 30 µM (inactive)

SMILES: Cc1cc(Nc2ncnc3ccc(NC4=NC(C)(C)CO4)cc23)ccc1Oc1ccn2ncnc2c1 [TUCATINIB]
- Kd [1]: > 30 µM (inactive)
- Kd [2]: > 30 µM (inactive)
- Kd [3]: 2.53 µM (active)
- Kd [4]: > 30 µM (inactive)
- Kd [5]: > 30 µM (inactive)
- Kd [6]: > 30 µM (inactive)
- Kd [7]: > 30 µM (inactive)
- Kd [8]: > 30 µM (inactive)
- Kd [9]: > 30 µM (inactive)
- Kd [10]: > 30 µM (inactive)
- Kd [11]: > 30 µM (inactive)

SMILES: CCS(=O)(=O)c1cccc(-c2cc(C(=O)NC3CCN(C)CC3)c(C)c3[nH]c4ncc(C)cc4c23)c1 [TAK-901]
- Kd [1]: 0.695 µM (active)
- Kd [2]: > 30 µM (inactive)
- Kd [3]: 1.47 µM (active)
- Kd [4]: 0.508 µM (active)
- pKd [5]: 6.26
- Kd [6]: > 30 µM (inactive)
- Kd [7]: > 30 µM (inactive)
- Kd [8]: 3.95 µM (active)
- Kd [9]: > 30 µM (inactive)
- Kd [10]: > 30 µM (inactive)
- Kd [11]: > 30 µM (inactive)

SMILES: Cn1ncc(Cl)c1-c1cc(C(=O)N[C@H](CN)Cc2ccc(F)c(F)c2)oc1Cl [UPROSERTIB]
- Kd [1]: > 30 µM (inactive)
- Kd [2]: > 30 µM (inactive)
- Kd [3]: > 30 µM (inactive)
- Kd [4]: > 30 µM (inactive)
- Kd [5]: > 30 µM (inactive)
- Kd [6]: > 30 µM (inactive)
- Kd [7]: > 30 µM (inactive)
- Kd [8]: > 30 µM (inactive)
- Kd [9]: > 30 µM (inactive)
- Kd [10]: > 30 µM (inactive)

SMILES: O=C(Nc1nc2cccc(-c3ccc(CN4CCS(=O)(=O)CC4)cc3)n2n1)C1CC1 [FILGOTINIB]
- Kd [1]: 6.59 µM (active)
- Kd [2]: > 30 µM (inactive)
- Kd [3]: > 30 µM (inactive)
- Kd [4]: > 30 µM (inactive)
- Kd [5]: > 30 µM (inactive)
- Kd [6]: 4.71 µM (active)
- Kd [8]: > 30 µM (inactive)
- Kd [9]: > 30 µM (inactive)
- Kd [10]: > 30 µM (inactive)
- Kd [11]: > 30 µM (inactive)

SMILES: Nc1ncnc2c1c(-c1cccc(OCc3ccccc3)c1)cn2[C@H]1C[C@@H](CN2CCC2)C1 [AEW-541]
- Kd [1]: > 30 µM (inactive)
- Kd [2]: > 30 µM (inactive)
- Kd [3]: > 30 µM (inactive)
- Kd [4]: > 30 µM (inactive)
- Kd [5]: > 30 µM (inactive)
- Kd [6]: > 30 µM (inactive)
- Kd [7]: > 30 µM (inactive)
- Kd [8]: 5.76 µM (active)
- Kd [9]: > 30 µM (inactive)
- Kd [10]: > 30 µM (inactive)
